molecular target: Estrogen receptor (Ovis aries) (UniProt P49885+Q9TU15)

| Compound | RAC app |
| --- | --- |
| C[C@]12C[C@H](c3ccc(OCCNC(=O)CCl)cc3)[C@@H]3c4ccc(O)cc4CC[C@H]3[C@@H]1CC[C@@H]2O | 3.3 |
| CN(CCOc1ccc([C@H]2C[C@]3(C)[C@@H](O)CC[C@H]3[C@@H]3CCc4cc(O)ccc4[C@H]32)cc1)C(=O)CBr | 4.22 |
| CN(CC#Cc1ccc([C@H]2C[C@]3(C)[C@@H](O)CC[C@H]3[C@@H]3CCc4cc(O)ccc4[C@H]32)cc1)C(=O)CCl | 19.4 |
| C[C@]12C[C@H](c3ccc(OCCOS(C)(=O)=O)cc3)[C@@H]3c4ccc(O)cc4CC[C@H]3[C@@H]1CC[C@@H]2O | 39.9 |
| CN(CCOc1ccc([C@H]2C[C@]3(C)[C@@H](O)CC[C@H]3[C@@H]3CCc4cc(O)ccc4[C@H]32)cc1)C(=O)CCl | 6.96 |
| C[C@]12C[C@H](c3ccc(C#CCNC(=O)CCl)cc3)[C@@H]3c4ccc(O)cc4CC[C@H]3[C@@H]1CC[C@@H]2O | 14.5 |

Now from value to compound:

| RAC app | Compound |
| --- | --- |
| 9.7 | CN(CCCCCOc1ccc([C@H]2C[C@]3(C)[C@@H](O)CC[C@H]3[C@@H]3CCc4cc(O)ccc4[C@H]32)cc1)C(=O)CBr |
| 17.1 | C[C@]12C[C@H](c3ccc(OCCCCCNC(=O)CBr)cc3)[C@@H]3c4ccc(O)cc4CC[C@H]3[C@@H]1CC[C@@H]2O |
| 8.23 | C[C@]12C[C@H](c3ccc(OCCCCCI)cc3)[C@@H]3c4ccc(O)cc4CC[C@H]3[C@@H]1CC[C@@H]2O |
| 10.6 | C[C@]12C[C@H](c3ccc(OCCI)cc3)[C@@H]3c4ccc(O)cc4CC[C@H]3[C@@H]1CC[C@@H]2O |

— ChEMBL document CHEMBL1133702
